Measured values reported in ChEMBL document CHEMBL3044631, “Synthesis of 2-[4,5-dimethyl-1-(phenylamino)-1H-imidazol-2-ylthio]-N-(thiazole-2-yl)acetamide derivatives and their anticancer activities” (2013).

Tests used:
Assay type in all cases: functional
[1] = system: EKVX; experiment: Anticancer activity against Homo sapiens (human) EKVX cells after 48 hr by SRB assay
[2] = system: CAKI-1; experiment: Anticancer activity against Homo sapiens (human) CAKI-1 cells after 48 hr by SRB assay; conditions: CAKI-1, 48 h
[3] = system: A498; experiment: Anticancer activity against Homo sapiens (human) A498 cells after 48 hr by SRB assay; conditions: A498, 48 h
[4] = system: TK-10; experiment: Anticancer activity against Homo sapiens (human) TK10 cells after 48 hr by SRB assay; conditions: TK-10, 48 h
[5] = system: MOLT-4; experiment: Anticancer activity against Homo sapiens (human) MOLT4 cells after 48 hr by SRB assay; conditions: MOLT-4, 48 h
[6] = system: CCRF-CEM; experiment: Anticancer activity against Homo sapiens (human) CCRF-CEM cells assessed as cell growth promotion at 10 uM after 48 hr by SRB assay
[7] = system: NCI-H460; experiment: Anticancer activity against Homo sapiens (human) NCI-H460 cells after 48 hr by SRB assay; conditions: NCI-H460, 48 h
[8] = system: Hs-578T; experiment: Anticancer activity against Homo sapiens (human) Hs 578T cells after 48 hr by SRB assay
[9] = system: A549; experiment: Anticancer activity against Homo sapiens (human) A549/ATCC cells after 48 hr by SRB assay; conditions: A549, 48 h
[10] = system: ACHN; experiment: Anticancer activity against Homo sapiens (human) ACHN cells after 48 hr by SRB assay
[11] = system: NCI-H322M; experiment: Anticancer activity against Homo sapiens (human) NCI-H322M cells after 48 hr by SRB assay
[12] = system: SK-OV-3; experiment: Anticancer activity against Homo sapiens (human) SKOV3 cells after 48 hr by SRB assay; conditions: SK-OV-3, 48 h
[13] = system: U-251; experiment: Anticancer activity against Homo sapiens (human) U251 cells after 48 hr by SRB assay; conditions: U-251, 48 h
[14] = system: UACC-62; experiment: Anticancer activity against Homo sapiens (human) UACC62 cells after 48 hr by SRB assay; conditions: UACC-62, 48 h
[15] = system: SK-MEL-5; experiment: Anticancer activity against Homo sapiens (human) SK-MEL-5 cells after 48 hr by SRB assay; conditions: SK-MEL-5, 48 h
[16] = system: SN12C; experiment: Anticancer activity against Homo sapiens (human) SN12C cells after 48 hr by SRB assay
[17] = system: HCT-15; experiment: Anticancer activity against Homo sapiens (human) HCT15 cells after 48 hr by SRB assay; conditions: HCT-15, 48 h
[18] = system: OVCAR-5; experiment: Anticancer activity against Homo sapiens (human) OVCAR5 cells after 48 hr by SRB assay; conditions: OVCAR-5, 48 h
[19] = system: OVCAR-8; experiment: Anticancer activity against Homo sapiens (human) OVCAR8 cells after 48 hr by SRB assay; conditions: OVCAR-8, 48 h
[20] = system: BT-549; experiment: Anticancer activity against Homo sapiens (human) BT549 cells after 48 hr by SRB assay; conditions: BT-549, 48 h
[21] = system: NCI-H522; experiment: Anticancer activity against Homo sapiens (human) NCI-H522 cells after 48 hr by SRB assay; conditions: NCI-H522, 48 h
[22] = system: LOX IMVI; experiment: Anticancer activity against Homo sapiens (human) LOXIMVI cells after 48 hr by SRB assay
[23] = system: MDA-MB-435; experiment: Anticancer activity against Homo sapiens (human) MDA-MB-435 cells after 48 hr by SRB assay; conditions: MDA-MB-435, 48 h
[24] = system: SW-620; experiment: Anticancer activity against Homo sapiens (human) SW620 cells after 48 hr by SRB assay; conditions: SW-620, 48 h
[25] = system: HOP-62; experiment: Anticancer activity against Homo sapiens (human) HOP62 cells after 48 hr by SRB assay; conditions: HOP-62, 48 h
[26] = system: HL-60(TB); experiment: Anticancer activity against Homo sapiens (human) HL-60(TB) cells after 48 hr by SRB assay; conditions: HL-60, 48 h
[27] = system: OVCAR-4; experiment: Anticancer activity against Homo sapiens (human) OVCAR4 cells after 48 hr by SRB assay; conditions: OVCAR-4, 48 h
[28] = system: MDA-MB-468; experiment: Anticancer activity against Homo sapiens (human) MDA-MB-468 cells after 48 hr by SRB assay; conditions: MDA-MB-468, 48 h
[29] = system: MDA-MB-231; experiment: Anticancer activity against Homo sapiens (human) MDA-MB-231/ATCC cells after 48 hr by SRB assay; conditions: MDA-MB-231, 48 h
[30] = system: DU-145; experiment: Anticancer activity against Homo sapiens (human) DU145 cells after 48 hr by SRB assay; conditions: DU-145, 48 h
[31] = system: UO-31; experiment: Anticancer activity against Homo sapiens (human) UO31 cells after 48 hr by SRB assay; conditions: UO-31, 48 h
[32] = read-out: LC50 (the source's name)

SMILES: Cc1ccc(Nn2c(SCC(=O)Nc3nc(-c4ccccc4)cs3)nc(C)c2C)cc1
- GI50 [1]: 1.39 µM
- TGI [1]: 5.61 µM
- CC50 [1, 32]: > 100 µM
- GI50 [2]: 1.86 µM
- LC50 (concentration killing 50% of cells) [2]: 99.3 µM
- TGI [2]: 6.1 µM
- GI50 [3]: 17.4 µM
- LC50 [3]: > 100 µM
- TGI [3]: > 100 µM
- GI50 [4]: 18.9 µM
- LC50 (50% lethal concentration) [4]: > 100 µM
- TGI [4]: > 100 µM
- GI50 [5]: 3.46 µM
- LC50 (50% lethal concentration) [5]: > 100 µM
- TGI [5]: > 100 µM
- Activity [6]: 57.71%
- GI50 [7]: 3.88 µM
- LC50 [7]: 83.3 µM
- TGI [7]: 16.5 µM
- GI50 [8]: 3.41 µM
- TGI [8]: > 100 µM
- CC50 [8, 32]: > 100 µM
- GI50 [9]: 3.03 µM
- LC50 [9]: > 100 µM
- TGI [9]: > 100 µM
- GI50 [10]: 4.06 µM
- LC50 (concentration killing 50% of cells) [10]: > 100 µM
- TGI [10]: 62.9 µM
- GI50 [11]: 10.2 µM
- TGI [11]: > 100 µM
- CC50 [11, 32]: > 100 µM
- GI50 [12]: 10.6 µM
- LC50 (50% lethal concentration) [12]: > 100 µM
- TGI [12]: > 100 µM
- GI50 [13]: 4.5 µM
- LC50 (lethal concentration, 50% net cell kill) [13]: > 100 µM
- TGI [13]: > 100 µM
- GI50 [14]: 3.15 µM
- LC50 [14]: > 100 µM
- TGI [14]: > 100 µM
- GI50 [15]: 2 µM
- LC50 (concentration killing 50% of cells) [15]: 23.8 µM
- TGI [15]: 5.72 µM
- GI50 [16]: 3.2 µM
- LC50 (concentration killing 50% of cells) [16]: 63 µM
- TGI [16]: 14.2 µM
- GI50 [17]: 5.17 µM
- TGI [17]: > 100 µM
- CC50 [17, 32]: > 100 µM
- GI50 [18]: 17.2 µM
- LC50 [18]: > 100 µM
- TGI [18]: > 100 µM
- GI50 [19]: 3.79 µM
- TGI [19]: > 100 µM
- CC50 [19, 32]: > 100 µM
- GI50 [20]: 3.18 µM
- LC50 [20]: 94.7 µM
- TGI [20]: 14.1 µM
- GI50 [21]: 2.97 µM
- LC50 (50% lethal concentration) [21]: > 100 µM
- TGI [21]: 86.8 µM
- GI50 [22]: 3.32 µM
- LC50 (50% lethal concentration) [22]: > 100 µM
- TGI [22]: 19.3 µM
- GI50 [23]: 2.66 µM
- LC50 (concentration killing 50% of cells) [23]: > 100 µM
- TGI [23]: 9.54 µM
- GI50 [24]: 8.03 µM
- LC50 (concentration killing 50% of cells) [24]: > 100 µM
- TGI [24]: > 100 µM
- GI50 [25]: 18.4 µM
- LC50 [25]: > 100 µM
- GI50 [26]: 4.64 µM
- TGI [26]: 39.1 µM
- CC50 [26, 32]: > 100 µM
- GI50 [27]: 2.13 µM
- LC50 (concentration killing 50% of starting cells) [27]: > 100 µM
- TGI [27]: > 100 µM
- GI50 [28]: 1.7 µM
- LC50 [28]: > 100 µM
- TGI [28]: 6.67 µM
- GI50 [29]: 3.34 µM
- TGI [29]: > 100 µM
- CC50 [29, 32]: > 100 µM
- GI50 [30]: 9.75 µM
- LC50 (concentration killing 50% of cells) [30]: > 100 µM
- TGI [30]: 64.6 µM
- GI50 [31]: 2.89 µM
- TGI [31]: > 100 µM
- CC50 [31, 32]: > 100 µM
